Experiments:
MCL-1 = MCL-1 (Homo sapiens (Human), UniProt Q07820); assay: Cell free Mcl-1:Bim affinity assay (fluorescence polarization competition); type: binding; conditions: 15 nM MCL-1, 5 nM FITC-Bim, 1 hour at room temperature; class symbols; read-out: BIM_Ki
Procedure, shortened: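 Fluorescence polarization competition: 10-point 3-fold compound dilutions displaced 5 nM FITC-Bim from 15 nM MCL-1 over 1 h at room temperature. Ki was derived from the fitted IC50 using the Nikolovska-Coleska equation, with percent inhibition normalized to DMSO and positive controls.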

H929 cells = assay: Cell viability assay (H929 10 FBS); type: cell-based; conditions: Homo sapiens, NCI-H929, 24 hours, read-out: H929_10FBS IC50
Procedure, shortened: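 ATP-based luminescence (CellTiter-Glo or ATPlite 1 Step, 30-60 min at RT) gauged viability of H929 myeloma cells after 24 h compound treatment at 37 °C. Cells plated at 4000 per well in 10% FBS RPMI 1640 supplemented with pyruvate, HEPES and glucose.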

MCL-1, sequence (Q07820 whole entry): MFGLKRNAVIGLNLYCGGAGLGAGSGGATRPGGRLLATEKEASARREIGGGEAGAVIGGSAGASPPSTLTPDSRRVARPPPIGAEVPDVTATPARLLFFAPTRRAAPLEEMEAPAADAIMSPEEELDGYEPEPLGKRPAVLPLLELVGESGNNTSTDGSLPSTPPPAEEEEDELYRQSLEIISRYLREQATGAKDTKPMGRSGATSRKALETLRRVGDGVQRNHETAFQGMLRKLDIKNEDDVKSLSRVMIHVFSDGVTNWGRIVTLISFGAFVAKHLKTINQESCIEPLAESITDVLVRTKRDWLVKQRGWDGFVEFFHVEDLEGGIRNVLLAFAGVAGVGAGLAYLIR

Structure (SMILES)	Ki (MCL-1) [nM]	IC50 (H929 cells) [nM]
CC1(C)OC/C=C/[C@H](OC(=O)N2CC(F)C2)[C@@H]2CC[C@H]2CN2C[C@@]3(CCCc4cc(Cl)ccc43)COc3ccc(cc32)S(=O)(=O)NC1=O [Example 165, [(3R,6R,7S,8E,22S)-6′-Chloro-12,12-dimethyl-13,15,15-trioxo-spiro[11,20-dioxa-15-thia-1,14-diazatetracyclo[14.7.2.03,6.019,24]pentacosa-8,16,18,24-tetraene-22,1′-tetralin]-7-yl] 3-fluoroazetidine-1-carboxylate]	< 1	< 500
CC1(C)OC/C=C/[C@H](OCCN2CCC2)[C@@H]2CC[C@H]2CN2C[C@@]3(CCCc4cc(Cl)ccc43)COc3ccc(cc32)S(=O)(=O)NC1=O [Example 262, (3R,6R,7S,8E,22S)-7-[2-(Azetidin-1-yl)ethoxy]-6′-chloro-12,12-dimethyl-15,15-dioxo-spiro[11,20-dioxa-15-thia-1,14-diazatetracyclo[14.7.2.03,6.019,24]pentacosa-8,16,18,24-tetraene-22,1′-tetralin]-13-one]	< 1	< 500
COC1CN(C(=O)O[C@H]2/C=C/CN(C)C3(CCC3)C(=O)NS(=O)(=O)c3ccc4c(c3)N(C[C@@H]3CC[C@H]32)C[C@@]2(CCCc3cc(Cl)ccc32)CO4)C1 [Example 238, [(3R,6R,7S,8E,22S)-6′-Chloro-11-methyl-12,12-(1,3-propylene)-13,15,15-trioxo-spiro[20-oxa-15-thia-1,11,14-triazatetracyclo[14.7.2.03,6.019,24]pentacosa-8,16,18,24-tetraene-22,1′-tetralin]-7-yl] 3-methoxyazetidine-1-carboxylate]	< 1	< 500
CN1C/C=C/[C@H](O)[C@@H]2CC[C@H]2CN2C[C@@]3(CCCc4cc(Cl)ccc43)COc3ccc(cc32)S(=O)(=O)NC(=O)C1(C)C [Example 43, (3R,6R,7S,8E,22S)-6′-Chloro-7-hydroxy-11,12,12-trimethyl-15,15-dioxo-spiro[20-oxa-15-thia-1,11,14-triazatetracyclo[14.7.2.03,6.019,24]pentacosa-8,16,18,24-tetraene-22,1′-tetralin]-13-one]	1 to 100	> 1000
COCCOC[C@H]1C(=O)NS(=O)(=O)c2ccc3c(c2)N(C[C@@H]2CC[C@H]2[C@H](OC)/C=C/C[C@@H]1C)C[C@@]1(CCCc2cc(Cl)ccc21)CO3 [Example 93, (3R,6R,7R,8E,11S,12S,22S)-6′-chloro-7-methoxy-12-(2-methoxyethoxymethyl)-11-methyl-15,15-dioxo-spiro[20-oxa-15-thia-1,14-diazatetracyclo[14.7.2.03,6.019,24]pentacosa-8,16,18,24-tetraene-22,1′-tetralin]-13-one]	1 to 100	> 1000
CO[C@@H]1/C=C/CC[C@@H](CO)C(=O)NS(=O)(=O)c2ccc3c(c2)N(C[C@@H]2CC[C@H]21)C[C@@]1(CCCc2cc(Cl)ccc21)CO3 [Example 95, (3R,6R,7R,8E,12S,22S)-6′-Chloro-12-(hydroxymethyl)-7-methoxy-15,15-dioxo-spiro[20-oxa-15-thia-1,14-diazatetracyclo[14.7.2.03,6.019,24]pentacosa-8,16,18,24-tetraene-22,1′-tetralin]-13-one]	1 to 100	> 1000
CCO[C@@H]1CCN(C(=O)O[C@H]2/C=C/COC3(CCC3)C(=O)NS(=O)(=O)c3ccc4c(c3)N(C[C@@H]3CC[C@H]32)C[C@@]2(CCCc3cc(Cl)ccc32)CO4)C1 [Example 228, [(3R,6R,7S,8E,22S)-6′-Chloro-12,12-(1,3-propylene)-13,15,15-trioxo-spiro[11,20-dioxa-15-thia-1,14-diazatetracyclo[14.7.2.03,6.019,24]pentacosa-8,16,18,24-tetraene-22,1′-tetralin]-7-yl] (3R)-3-ethoxypyrrolidine-1-carboxylate]	< 1	< 500

— patent US11130769B2 (Prelude Therapeutics Incorporated, priority 2018, dated 2021)
